Legend:
Human Factor XIIa = target: T1, Human Factor XIIa (Homo sapiens, UniProt P00748); test: Determination of FXIIa inhibition (fluorogenic substrate H-DPro-Phe-Arg-AFC, IC50 assay); format: biochemical; details: substrate at Km concentration, 25° C.; category scale; read-out: Human FXII IC50 (nm)
T1 construct: Proteolytic cleavage of FXII to heavy and light chains of FXIIa dramatically increases catalytic activity; purchased Enzyme Research Laboratories
T1 sequence (P00748 373-615 limits assumed): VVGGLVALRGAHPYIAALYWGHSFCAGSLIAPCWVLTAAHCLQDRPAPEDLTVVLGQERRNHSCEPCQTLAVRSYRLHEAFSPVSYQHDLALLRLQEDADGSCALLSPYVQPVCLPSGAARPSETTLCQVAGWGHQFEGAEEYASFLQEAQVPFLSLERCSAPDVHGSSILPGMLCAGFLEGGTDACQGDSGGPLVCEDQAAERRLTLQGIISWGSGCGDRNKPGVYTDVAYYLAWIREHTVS
T1 sequence (P00748 20-372 partner limits assumed): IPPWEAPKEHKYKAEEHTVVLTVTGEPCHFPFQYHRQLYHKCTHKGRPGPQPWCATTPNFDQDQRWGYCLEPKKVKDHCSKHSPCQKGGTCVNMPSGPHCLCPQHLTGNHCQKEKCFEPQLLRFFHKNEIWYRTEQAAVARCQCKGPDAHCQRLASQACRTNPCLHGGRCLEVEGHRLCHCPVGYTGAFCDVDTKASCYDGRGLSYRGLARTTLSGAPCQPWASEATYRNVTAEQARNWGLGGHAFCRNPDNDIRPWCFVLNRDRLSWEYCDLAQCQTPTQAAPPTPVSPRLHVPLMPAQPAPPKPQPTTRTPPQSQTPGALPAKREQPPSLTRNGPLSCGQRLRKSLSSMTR
Outline: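 Human FXIIa incubated at 25° C. with fluorogenic H-DPro-Phe-Arg-AFC at its Km concentration plus varying compound levels. Linear fluorescence increase over 5 min taken as % activity; IC50 is concentration halving uninhibited activity.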

Plasma Kallikrein = target: T2, Plasma Kallikrein (Homo sapiens, UniProt P03952); test: Related protease inhibition: Plasma Kallikrein (fluorogenic substrate at Km); format: biochemical; details: class symbols per Table 18, read-out: IC50 (human PKal)
T2 construct: FXIIa converts plasma prekallikrein (PK) to plasma kallikrein (PKa)
T2 sequence (P03952 391-638 limits assumed): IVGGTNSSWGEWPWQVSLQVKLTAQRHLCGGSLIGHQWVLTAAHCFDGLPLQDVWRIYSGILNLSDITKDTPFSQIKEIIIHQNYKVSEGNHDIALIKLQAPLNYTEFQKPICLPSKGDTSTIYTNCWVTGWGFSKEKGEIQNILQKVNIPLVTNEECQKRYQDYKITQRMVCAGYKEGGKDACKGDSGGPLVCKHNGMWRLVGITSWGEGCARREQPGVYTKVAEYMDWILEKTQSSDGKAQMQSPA
T2 sequence (P03952 20-390 partner limits assumed): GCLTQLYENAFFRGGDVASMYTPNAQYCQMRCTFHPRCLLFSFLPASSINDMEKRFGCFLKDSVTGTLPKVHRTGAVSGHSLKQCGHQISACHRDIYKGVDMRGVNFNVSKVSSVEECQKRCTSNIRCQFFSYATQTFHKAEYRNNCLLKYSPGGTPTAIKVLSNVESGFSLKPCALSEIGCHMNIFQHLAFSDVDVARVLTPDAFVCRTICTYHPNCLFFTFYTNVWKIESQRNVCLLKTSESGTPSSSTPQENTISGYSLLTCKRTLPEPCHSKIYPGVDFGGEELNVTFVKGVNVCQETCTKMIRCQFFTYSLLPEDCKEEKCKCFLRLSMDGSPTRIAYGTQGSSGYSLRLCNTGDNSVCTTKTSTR
Description: In vitro inhibition of related proteases was determined using an IC50 assay based on standard literature methods (see e.g. Shori et al., Biochem. Pharmacol., 1992, 43, 1209; Bouckaert et al., European Journal of Medicinal Chemistry 110 (2016) 181). Human serine protease enzyme Plasma Kallikrein, KLK1, FXa, Plasmin, Thrombin and Trypsin were assayed for enzymatic activity using an appropriate fluorogenic substrate at Km concentration, FXIa at fixed substrate concentration of 100 μM and various concentrations of the test compound. Protease activity was measured by monitoring the accumulation of liberated fluorescence from the substrate over 5 min at 25° C. The linear rate of fluorescence increase per minute was expressed as percentage (%) activity. IC50 values were calculated as the concentration of inhibitor giving 50% inhibition of the uninhibited enzyme activity (100%).

Row | Structure (SMILES) | IC50 (Human Factor XIIa) [nM] | IC50 (Plasma Kallikrein) [nM]
1 | Clc1c[nH]c2ncc(NCC34CC(COc5ccn6ccnc6c5)(C3)C4)cc12 [Example 1129, 3-chloro-N-((3-((imidazo[1,2-a]pyridin-7-yloxy)methyl)bicyclo[1.1.1]pentan-1-yl)methyl)-1H-pyrrolo[2,3-b]pyridin-5-amine] |  | > 100000
2 | Nc1nccc2c(OCC34CC(C(=O)N5CCn6ccnc6C5)(C3)C4)cccc12 [Example 1015, [3-[(1-aminoisoquinolin-5-yl)oxymethyl]-1-bicyclo[1.1.1]pentanyl]-(6,8-dihydro-5H-imidazo [1,2-a]pyrazin-7-yl)methanone] | 10000 to 40000 | > 40000
3 | CC1(C)OC2(CNc3cccc4c(N)nccc34)CC1(COc1ccc3nccn3c1)C2 [Example 7703, N5-((4-((imidazo[1,2-a]pyridin-6-yloxy)methyl)-3,3-dimethyl-2-oxabicyclo[2.1.1]hexan-1-yl)methyl)isoquinoline-1,5-diamine] | 100 to 300 | > 40000
4 | Nc1nccc2c(NCC34CC(COc5ccc6nccn6n5)(CO3)C4)cccc12 [Example 6612, N5-((4-((imidazo[1,2-b]pyridazin-6-yloxy)methyl)-2-oxabicyclo[2.1.1]hexan-1-yl)methyl)isoquinoline-1,5-diamine] | 1000 to 3000 | > 40000
5 | Nc1nccc2c(NCC34CC(COc5ccc6c(c5)NC(=O)C6)(C3)C4)cccc12 [Example 1113, 6-((3-(((1-aminoisoquinolin-5-yl)amino)methyl)bicyclo[1.1.1]pentan-1-yl)methoxy)indolin-2-one] | 1000 to 3000 | > 40000
6 | Nc1nccc2c(NCC34COC(COc5ccn6ncnc6c5)(C3)C4)cccc12 [Example 2207, N5-((1-(([1,2,4]triazolo[1,5-a]pyridin-7-yloxy)methyl)-2-oxabicyclo[2.1.1]hexan-4-yl)methyl)isoquinoline-1,5-diamine] | 1000 to 3000 | > 40000
7 | CC(C)N1C[C@@H]2C[C@H]1CN2CC12CC(CNc3cccc4c(N)nccc34)(C1)C2 [Example 1005.1, N5-((3-(((1S,4S)-5-Isopropyl-2,5-diazabicyclo[2.2.1]heptan-2-yl)methyl)bicyclo[1.1.1]pentan-1-yl)methyl)isoquinoline-1,5-diamine] | 300 to 1000 | > 40000
8 | Clc1cc2c(NCC34CC(COc5ccc6nccn6c5)(CO3)C4)ccnc2[nH]1 [Example 6611, 2-chloro-N-((4-((imidazo[1,2-a]pyridin-6-yloxy)methyl)-2-oxabicyclo[2.1.1]hexan-1-yl)methyl)-1H-pyrrolo[2,3-b]pyridin-4-amine] | 1000 to 3000 | > 40000
9 | Nc1nccc2c(NCC34CC(COc5ccc6c(c5)CNC6=O)(C3)C4)cccc12 [Example 1133, 5-((3-(((1-aminoisoquinolin-5-yl)amino)methyl)bicyclo[1.1.1]pentan-1-yl)methoxy)isoindolin-1-one] | 100 to 300 | 
10 | Nc1nccc2c(NCC34CC(COc5ccc6c(c5)C(=O)NC6)(CO3)C4)cccc12 [Example 6642, 6-((1-(((1-aminoisoquinolin-5-yl)amino)methyl)-2-oxabicyclo[2.1.1]hexan-4-yl)methoxy)isoindolin-1-one] | 100 to 300 | 

Continued, values first:

Row | IC50 (Human Factor XIIa) [nM] | IC50 (Plasma Kallikrein) [nM] | Structure (SMILES)
11 | 10000 to 40000 | > 40000 | Nc1nccc2c(NCC34CC(COc5ncccn5)(CCO3)C4)cccc12 [Example 10912, N5-((5-((pyrimidin-2-yloxy)methyl)-2-oxabicyclo[3.1.1]heptan-1-yl)methyl)isoquinoline-1,5-diamine]
12 | 10000 to 40000 | > 40000 | Nc1nccc2c(NCC34CN(C(=O)OCc5ccccc5)C(C(=O)N5CCn6c(nnc6C(F)(F)F)C5)(C3)C4)cccc12 [Example 13002, benzyl 4-(((1-aminoisoquinolin-5-yl)amino)methyl)-1-(3-(trifluoromethyl)-5,6,7,8-tetrahydro-[1,2,4]triazolo[4,3-a]pyrazine-7-carbonyl)-2-azabicyclo[2.1.1]hexane-2-carboxylate]
13 | 10000 to 40000 | > 40000 | Nc1nccc2c(N3CC4(CCC4OCc4ccn5ccnc5c4)C3)cccc12 (single isomer, unassigned) [Example 9002, (R*)-5-(5-(imidazo[1,2-a]pyridin-7-ylmethoxy)-2-azaspiro[3.3]heptan-2-yl)isoquinolin-1-amine]
14 | 1000 to 3000 | > 40000 | Nc1nccc2c(N3CCC4(CC(OCc5ccn6ccnc6c5)C4)C3)cccc12 (centres unmarked) [Example 8803, 5-(2-(imidazo[1,2-a]pyridin-7-ylmethoxy)-6-azaspiro[3.4]octan-6-yl)isoquinolin-1-amine]
15 | 10 to 100 |  | Cn1ccc(OCC23CN(C(=O)CCc4cccc(C(F)(F)F)c4)C(CNc4cccc5c(N)nccc45)(C2)C3)cc1=O [Example 12050, 4-((1-(((1-aminoisoquinolin-5-yl)amino)methyl)-2-(3-(3-(trifluoromethyl)phenyl)propanoyl)-2-azabicyclo[2.1.1]hexan-4-yl)methoxy)-1-methylpyridin-2(1H)-one]
16 | 100 to 300 |  | Cn1ccc(OCC23CN(c4nccc(-c5ccccc5)n4)C(CNc4cccc5c(N)nccc45)(C2)C3)cc1=O [Example 12031, 4-((1-(((1-aminoisoquinolin-5-yl)amino)methyl)-2-(4-phenylpyrimidin-2-yl)-2-azabicyclo[2.1.1]hexan-4-yl)methoxy)-1-methylpyridin-2(1H)-one]
17 | 10 to 100 |  | Cn1ccc(OCC23CN(C(=O)CCc4ccc5cccnc5c4)C(CNc4cccc5c(N)nccc45)(C2)C3)cc1=O [Example 12055, 4-((1-(((1-aminoisoquinolin-5-yl)amino)methyl)-2-(3-(quinolin-7-yl)propanoyl)-2-azabicyclo[2.1.1]hexan-4-yl)methoxy)-1-methylpyridin-2(1H)-one]
18 | 1000 to 3000 |  | CC(C)c1cc(OCC23CCOC(CNc4cccc5c(N)nccc45)(C2)C3)ncn1 [Example 10948, N5-((5-(((6-isopropylpyrimidin-4-yl)oxy)methyl)-2-oxabicyclo[3.1.1]heptan-1-yl)methyl)isoquinoline-1,5-diamine]
19 | 300 to 1000 |  | Cn1ccc(OCC23CC(CNc4cccc5c(N)nccc45)(CN2C(=O)CCc2ccccc2)C3)cc1=O [Example 13008, 4-((4-(((1-aminoisoquinolin-5-yl)amino)methyl)-2-(3-phenylpropanoyl)-2-azabicyclo[2.1.1]hexan-1-yl)methoxy)-1-methylpyridin-2(1H)-one]
20 | 10 to 100 |  | Cn1ccc(OCC23CN(C(=O)CCc4ccc(=O)[nH]c4)C(CNc4cccc5c(N)nccc45)(C2)C3)cc1=O [Example 12054, 4-((1-(((1-aminoisoquinolin-5-yl)amino)methyl)-2-(3-(6-oxo-1,6-dihydropyridin-3-yl)propanoyl)-2-azabicyclo[2.1.1]hexan-4-yl)methoxy)-1-methylpyridin-2(1H)-one]
21 | 300 to 1000 |  | CN(Cc1ccccc1)C(=O)N1CC2(CNc3cccc4c(N)nccc34)CC1(COc1ccn(C)c(=O)c1)C2 [Example 13011, 4-(((1-aminoisoquinolin-5-yl)amino)methyl)-N-benzyl-N-methyl-1-(((1-methyl-2-oxo-1,2-dihydropyridin-4-yl)oxy)methyl)-2-azabicyclo[2.1.1]hexane-2-carboxamide]
22 | 300 to 1000 |  | Cn1ccc(OCC23CN(C(=O)NCc4ccccc4)C(CNc4c(F)ccc5c(N)nccc45)(C2)C3)cc1=O [Example 12072, 1-(((1-amino-6-fluoroisoquinolin-5-yl)amino)methyl)-N-benzyl-4-(((1-methyl-2-oxo-1,2-dihydropyridin-4-yl)oxy)methyl)-2-azabicyclo[2.1.1]hexane-2-carboxamide]
23 | 10 to 100 |  | COc1ccccc1CNC(=O)N1CC2(COc3ccn(C)c(=O)c3)CC1(CNc1cccc3c(N)nccc13)C2 [Example 12067, 1-(((1-aminoisoquinolin-5-yl)amino)methyl)-N-(2-methoxybenzyl)-4-(((1-methyl-2-oxo-1,2-dihydropyridin-4-yl)oxy)methyl)-2-azabicyclo[2.1.1]hexane-2-carboxamide]
24 | 10 to 100 |  | CN1Cc2cc(OCC34CN(C(=O)OCc5ccccc5)C(CNc5cccc6c(N)nccc56)(C3)C4)ccc2C1=O [Example 12018, benzyl 1-(((1-aminoisoquinolin-5-yl)amino)methyl)-4-(((2-methyl-1-oxoisoindolin-5-yl)oxy)methyl)-2-azabicyclo[2.1.1]hexane-2-carboxylate]
